In PubChem BioAssay (NCI):
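Method: 48-hour compound exposure of cells in 96-well plates, five concentrations, linear interpolation of endpoints. The concentration for 50% growth inhibition is given as GI50. TGI marks complete inhibition of growth.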

Key:
Test in all cases: inhibition of tumour cell growth, NCI panel, 48 h
[1] = system: ACHN renal
[2] = system: CCRF-CEM leukemia
[3] = system: HCT-116 colon
[4] = system: HOP-92 NSCLC
[5] = system: IGROV1 ovarian
[6] = system: M14 melanoma
[7] = system: NCI-H226 lung
[8] = system: OVCAR-4 ovarian
[9] = system: SK-MEL-5 melanoma
[10] = system: SN12C renal

SMILES | TGI [1] [µM] | TGI [2] [µM] | TGI [3] [µM] | TGI [4] [µM] | TGI [5] [µM] | TGI [6] [µM] | TGI [7] [µM] | TGI [8] [µM] | TGI [9] [µM] | TGI [10] [µM] | GI50 [1] [µM] | GI50 [2] [µM] | GI50 [3] [µM] | GI50 [5] [µM] | GI50 [6] [µM] | GI50 [7] [µM] | GI50 [8] [µM] | GI50 [9] [µM] | GI50 [10] [µM] | GI50 [4] [µM]
CC(=O)O[C@H]1C(=O)[C@@]2(C)C(C(OC(=O)c3ccccc3)[C@]3(O)C[C@H](OC(=O)C(OC(=O)CCCC(=O)NCCCN(C)C)C(NC(=O)c4ccccc4)c4ccccc4)C(C)=C1C3(C)C)C1(OC(C)=O)COC1C[C@@H]2O (stereo partly specified) | > 100 | 9.58 | 1.53 | 37.2 | 59 | 25 | 39.1 | > 87.9 | 18.6 | 75.5 | – | – | – | – | – | – | – | – | – | –
O=C(CC(Cl)=C(Cl)Cl)Nc1ccccc1 | > 100 | > 100 | > 100 | > 100 | > 100 | > 100 | > 100 | > 100 | > 100 | > 100 | > 100 | > 100 | > 100 | > 100 | > 100 | > 100 | > 100 | > 100 | > 100 | –
O=Nc1ccc(O)c(=O)cc1 | 2.63 | 1.19 | 3.49 | 3.39 | 11.3 | 7.01 | 8.64 | 4.83 | 10.6 | 12.4 | 0.906 | 0.264 | 0.961 | 3.77 | 2.52 | 2.5 | 1.71 | 3.63 | 2.95 | 0.998
CC(C)(C)c1ccc(S(=O)(=O)Oc2ccc3c4c(c(=O)oc3c2)CCCCC4)cc1 | 34.6 | > 100 | > 100 | 12.2 | 48.5 | > 100 | > 100 | 40.7 | 85.4 | > 100 | 14.4 | > 100 | 7.06 | 14.9 | 20.4 | 9.94 | 8.13 | 5.48 | 29.3 | 1.22
CCCCCCCCCCCCOC1C(CNC(=O)C2OC3OC(C)(C)OC3C2NC(=O)Nc2ccc(CC(=O)OC)cc2)OC2OC(C)(C)OC21 (stereo unspecified) | > 100 | > 100 | > 100 | > 100 | > 100 | > 100 | > 100 | > 100 | > 100 | > 100 | > 100 | > 19.6 | 12.5 | > 90.9 | 22.7 | > 100 | > 100 | > 100 | > 100 | > 100
C=C1CC[C@@H]2[C@](C)(COC(C)=O)[C@H](OC(C)=O)CC[C@@]2(C)[C@@H]1CC(Nc1ccc(S(=O)(=O)NC(C)=O)cc1)C1=CCOC1=O (stereo partly specified) | 16.5 | 6.26 | 3.66 | 15.8 | 15.4 | 11.9 | 4.62 | 13.7 | 11.5 | 5.4 | 7.54 | 1.93 | 1.67 | 5.31 | 2.86 | 1.92 | 4.14 | 3.22 | 1.78 | 6.5
O=C(Cc1ccc(/C=C/C(=O)c2ncc[nH]2)cc1)Nc1ccc(F)cc1 | 9.62 | > 33.3 | 6.92 | 30.5 | 13.9 | 17.6 | > 33.3 | > 33.3 | 11.9 | 27.1 | 4.82 | 1.68 | 1.89 | 2.66 | 5.98 | 9.85 | 9.14 | 6.06 | 2.93 | 9.11
COc1ccc(C2=C(Cl)c3cc(OC)c(OC)cc3C2OC)cc1OC (stereo unspecified) | > 100 | > 100 | > 100 | > 100 | > 100 | > 100 | > 100 | > 100 | > 100 | > 100 | – | – | – | – | – | – | – | – | – | –
CC(=O)Nc1ccc2c(c1)C(c1ccccc1Cl)=Nc1c(n[nH]c1C)N2 | > 25 | > 25 | > 25 | 16.4 | > 24 | > 25 | > 17.7 | > 25 | > 25 | > 25 | 6.19 | 12.2 | 2.49 | 5.66 | > 25 | 0.57 | > 15.9 | 17.6 | 5.05 | 1.41
N#CCCN(c1ccc(C=Nc2ccccc2)cc1)S(=O)(=O)c1ccccc1 | – | > 100 | > 100 | > 100 | > 100 | > 100 | > 100 | > 100 | > 100 | > 100 | – | – | – | – | – | – | – | – | – | –
COC(=O)C1CCc2c1c(=O)n1c([nH]c3ccccc31)c2C#N (stereo unspecified) | > 100 | > 100 | > 100 | > 100 | > 100 | > 100 | > 100 | > 100 | > 100 | – | – | – | – | – | – | – | – | – | – | –
CN1c2ccccc2N(C(=O)c2ccc([N+](=O)[O-])cc2)C(CC(=O)O)c2cccn21 (stereo unspecified) | > 100 | > 100 | – | > 100 | > 100 | > 100 | > 100 | > 100 | > 100 | > 100 | – | – | – | – | – | – | – | – | – | –
